According to ChEMBL document CHEMBL5370578, “Discovery of a potent, orally available tricyclic derivative as a novel BRD4 inhibitor for melanoma” (Bioorg Med Chem, 2023):

Columns and labels:
in vivo = settings: Slc:ICR, mouse, po, 1 mg/kg
[1] = Apparent permeability of the compound across apical side to basolateral side in human Caco-2 cells incubated for 2 hrs by LC-MS/MS analysis
[2] = Half life in Slc:ICR mouse at 0.5 mg/kg, iv measured for 4 to 8 hrs by LC/MS/MS analysis; type: ADME, organism-based; settings: in vivo, time 4-8 hrs
[3] = molecular target: Bromodomain-containing protein 3 (Homo sapiens, UniProt Q15059); experiment: Displacement of Biotin-tagged [Lys(5,8,12,16)Ac]H4(1 to 21) peptide from GST-tagged BRD3-BD1 (unknown origin) incubated for 3 hrs by HTRF based TR-FRET assay
[4] = Oral bioavailability in Slc:ICR mouse at 1 mg/kg measured for 8 to 24 hrs by LC/MS/MS analysis; type: ADME, organism-based; settings: in vivo, time 8-24 hrs
[5] = Antitumor activity against human A375.S2 cells xenografted CAnN.Cg-Foxnlnu/CrlCrlj mouse model assessed as reduction in tumor growth at 60 mg/kg administered twice daily for 14 days relative to control; type: functional; design: scale not given: the % may be the effect or the level left; settings: time 14 day
[6] = molecular target: T1, Bromodomain-containing protein 4 (Homo sapiens, UniProt O60885); experiment: Displacement of Biotin-tagged [Lys(5,8,12,16)Ac]H4(1 to 21) peptide from BRD4-BD2 (unknown origin) incubated for 3 hrs by HTRF based TR-FRET assay
[7] = Stability in mouse liver microsomes assessed as intrinsic clearance measured per mg protein
[8] = Toxicity in CAnN.Cg-Foxnlnu/CrlCrlj mouse xenografted with human A375.S2 cells assessed as body weight loss at 30 to 60 mg/kg administered twice daily for 14 days; type: organism-based; settings: in vivo, 336 h, dose 30-60 mg/kg, time 14 day
[9] = molecular target: Bromodomain testis-specific protein (Homo sapiens, UniProt Q58F21); experiment: Displacement of Biotin-tagged [Lys(5,8,12,16)Ac]H4(1 to 21) peptide from GST-tagged BRDT-BD1 (unknown origin) incubated for 3 hrs by HTRF based TR-FRET assay
[10] = molecular target: T1, Bromodomain-containing protein 4; experiment: Inhibition of NanoLuc-tagged full length BRD4 (unknown origin) transfected in HEK293 cells coexpressing histone H4-halo-tagged fusion vector preincubated overnight followed by substrate addition and measured after 10 mins by NanoBRET assay; type: cell-based
[11] = Total clearance in Slc:ICR mouse at 0.5 mg/kg, iv measured for 4 to 8 hrs by LC/MS/MS analysis; type: ADME, organism-based; settings: in vivo, time 4-8 hrs
[12] = molecular target: T1, Bromodomain-containing protein 4; experiment: Displacement of Biotin-tagged [Lys(5,8,12,16)Ac]H4(1 to 21) peptide from GST-tagged BRD4-BD1 (unknown origin) incubated for 3 hrs by HTRF based TR-FRET assay
[13] = Antiproliferative activity against human A375.S2 cells assessed as inhibition of cell growth incubated for 72 hrs by WST-1 assay; type: functional, cell-based; settings: A375-S2, 72 h
[14] = Volume of distribution in Slc:ICR mouse at 0.5 mg/kg, iv measured for 4 to 8 hrs by LC/MS/MS analysis; type: ADME, organism-based; settings: in vivo, time 4-8 hrs
[15] = molecular target: Bromodomain-containing protein 2 (Homo sapiens, UniProt P25440); experiment: Displacement of Biotin-tagged [Lys(5,8,12,16)Ac]H4(1 to 21) peptide from GST-tagged BRD2-BD1 (unknown origin) incubated for 3 hrs by HTRF based TR-FRET assay
[16] = AUC (0 to 24 hrs) in Slc:ICR mouse at 1 mg/kg, po measured for 8 to 24 hrs by LC/MS/MS analysis; type: ADME, organism-based; design: dose 1 mg/kg, time upper 24 hrs, time lower 8 hrs, route po; settings: in vivo
[17] = Stability in human liver microsomes assessed as intrinsic clearance measured per mg protein
[18] = AUC (0 to 8 hrs) in Slc:ICR mouse at 1 mg/kg, po measured for 8 to 24 hrs by LC/MS/MS analysis; type: ADME, organism-based; design: time lower 8 hrs, dose 1 mg/kg, time upper 24 hrs, route po; settings: in vivo

Bromodomain-containing protein 3, sequence (Q15059 whole entry): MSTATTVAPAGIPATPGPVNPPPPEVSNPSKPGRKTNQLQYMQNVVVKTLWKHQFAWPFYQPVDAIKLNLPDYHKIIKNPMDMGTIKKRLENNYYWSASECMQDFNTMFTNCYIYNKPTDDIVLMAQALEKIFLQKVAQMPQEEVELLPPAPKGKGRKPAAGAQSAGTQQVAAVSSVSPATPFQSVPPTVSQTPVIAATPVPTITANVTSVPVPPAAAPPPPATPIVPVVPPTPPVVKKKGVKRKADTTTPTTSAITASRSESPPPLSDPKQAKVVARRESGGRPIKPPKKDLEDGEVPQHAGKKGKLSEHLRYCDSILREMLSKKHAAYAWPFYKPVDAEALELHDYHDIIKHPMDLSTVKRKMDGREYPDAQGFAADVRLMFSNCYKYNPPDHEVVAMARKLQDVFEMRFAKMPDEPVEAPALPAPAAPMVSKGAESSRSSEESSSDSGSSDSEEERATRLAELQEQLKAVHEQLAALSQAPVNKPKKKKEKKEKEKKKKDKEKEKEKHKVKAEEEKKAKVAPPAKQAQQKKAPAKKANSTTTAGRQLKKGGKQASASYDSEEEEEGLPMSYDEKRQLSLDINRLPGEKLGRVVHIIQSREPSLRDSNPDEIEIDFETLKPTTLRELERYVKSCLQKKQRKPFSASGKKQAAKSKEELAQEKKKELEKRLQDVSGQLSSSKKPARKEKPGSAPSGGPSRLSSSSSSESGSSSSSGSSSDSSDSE
Bromodomain-containing protein 2, sequence (P25440 whole entry): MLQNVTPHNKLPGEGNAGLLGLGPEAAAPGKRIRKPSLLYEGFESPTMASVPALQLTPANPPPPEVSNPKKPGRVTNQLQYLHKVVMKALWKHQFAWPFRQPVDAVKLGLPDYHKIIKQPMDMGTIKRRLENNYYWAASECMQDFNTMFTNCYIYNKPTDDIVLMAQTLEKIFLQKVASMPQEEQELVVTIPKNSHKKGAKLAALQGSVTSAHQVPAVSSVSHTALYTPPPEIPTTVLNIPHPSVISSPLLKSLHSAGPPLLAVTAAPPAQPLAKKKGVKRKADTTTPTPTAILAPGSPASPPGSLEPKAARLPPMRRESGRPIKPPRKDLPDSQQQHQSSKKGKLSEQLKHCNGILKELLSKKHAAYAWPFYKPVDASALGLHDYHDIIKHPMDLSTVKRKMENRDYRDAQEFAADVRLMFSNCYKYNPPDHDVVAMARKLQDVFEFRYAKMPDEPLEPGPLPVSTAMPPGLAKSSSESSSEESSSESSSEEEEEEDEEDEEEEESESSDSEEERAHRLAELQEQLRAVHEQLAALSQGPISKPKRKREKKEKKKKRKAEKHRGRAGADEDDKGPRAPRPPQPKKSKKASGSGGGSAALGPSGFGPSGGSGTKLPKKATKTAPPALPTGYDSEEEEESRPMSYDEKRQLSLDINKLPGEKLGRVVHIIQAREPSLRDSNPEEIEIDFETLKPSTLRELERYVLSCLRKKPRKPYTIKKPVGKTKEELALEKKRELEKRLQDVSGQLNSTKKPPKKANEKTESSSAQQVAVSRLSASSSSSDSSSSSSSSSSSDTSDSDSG

Row | SMILES | Papp A→B at 2 h [1] | CLH [7] | IC50 [12] | CLH [17] | other results
1 | Cc1cc(-c2cc3c4c(c2)n(Cc2ccccc2)c(=O)n4CCO3)cn(C)c1=O | 12 ×10⁻⁶ cm/s | 17 mL/min | 15 nM |  | Cmax (in vivo): 299 ng/mL; half-life [2]: 4.1 h; IC50 [3]: 25 nM; bioavailability [4]: 49%; Activity [5]: 41%; IC50 [6]: 55 nM; Activity [8]: Non-Toxic; IC50 [9]: 68 nM; IC50 [10]: 81 nM; clearance [11]: 3.3 mL/min; IC50 [13]: 539 nM; Vd [14]: 1.18 L/kg; IC50 [15]: 19 nM; AUC(0-t) [16]: 2420 ng·h/mL
2 | Cc1cc(-c2ccc3cnn(Cc4ccccc4)c3c2)cn(C)c1=O |  | 42 mL/min | 61 nM | 43 mL/min | 
3 | Cc1cc(-c2ccc3[nH]c(=O)n(Cc4ccccc4)c3c2)cn(C)c1=O | 5.9 ×10⁻⁶ cm/s | 15 mL/min | 32 nM | 29 mL/min | Cmax (in vivo): 37 ng/mL; bioavailability [4]: 70%; AUC(0-t) [18]: 178 ng·h/mL; clearance [11]: 40 mL/min
4 | Cc1cc(-c2ccc3c(c2)n(Cc2ccccc2)c(=O)n3C(C)C)cn(C)c1=O | 14 ×10⁻⁶ cm/s | 38 mL/min | 25 nM | 27 mL/min | 
5 | Cc1cc(-c2ccc3c(c2)n(Cc2ccccc2)c(=O)n3CC(C)C)cn(C)c1=O |  | 491 mL/min | 42 nM | 352 mL/min | 
6 | Cc1cc(-c2ccc3ccn(Cc4ccccc4)c3c2)cn(C)c1=O |  |  | 94 nM |  | 
7 | Cc1cc(-c2ccc3c(c2)N(Cc2ccccc2)C(=O)CN3)cn(C)c1=O |  |  | 122 nM |  | 
8 | Cc1cc(-c2ccc3nnn(Cc4ccccc4)c3c2)cn(C)c1=O |  | 23 mL/min | 38 nM | 49 mL/min | 
9 | CCS(=O)(=O)NCc1cc(-c2cc(C)c(=O)n(C)c2)cc2c1n(C)c(=O)n2Cc1ccccc1 | 0.03 ×10⁻⁶ cm/s | 53 mL/min | 39 nM | 37 mL/min | 
10 | Cc1cc(-c2ccc3c(c2)n(Cc2ccccc2)c(=O)n3C)cn(C)c1=O | 21 ×10⁻⁶ cm/s | 20 mL/min | 50 nM | 25 mL/min | 
11 | COCCn1c(=O)n(Cc2ccccc2)c2cc(-c3cc(C)c(=O)n(C)c3)ccc21 |  |  | 45 nM |  | 
12 | Cc1cc(-c2ccc3ncn(Cc4ccccc4)c3c2)cn(C)c1=O |  | 36 mL/min |  | 65 mL/min | Cmax (in vivo): < 1 ng/mL

More lines, main results first:

Row | Papp A→B at 2 h [1] | CLH [7] | IC50 [12] | CLH [17] | SMILES | other results
13 |  |  | 112 nM |  | CCS(=O)(=O)c1cc(-c2cc(C)c(=O)n(C)c2)cc2c1[nH]c(=O)n2Cc1ccccc1 | 
14 |  | 34 mL/min | 4.8 nM | 14 mL/min | CCS(=O)(=O)Cc1cc(-c2cc(C)c(=O)n(C)c2)cc2c1n(C)c(=O)n2Cc1ccccc1 | 
15 | 0.02 ×10⁻⁶ cm/s | 11 mL/min | 4.2 nM | 11 mL/min | CCS(=O)(=O)Cc1cc(-c2cc(C)c(=O)n(C)c2)cc2c1[nH]c(=O)n2Cc1ccccc1 | 
16 | 0.11 ×10⁻⁶ cm/s | 66 mL/min | 12 nM | 43 mL/min | CCS(=O)(=O)NCc1cc(-c2cc(C)c(=O)n(C)c2)cc2c1[nH]c(=O)n2Cc1ccccc1 | 
17 |  |  | 157 nM |  | CC[S+]([O-])c1cc(-c2cc(C)c(=O)n(C)c2)cc2c1[nH]c(=O)n2Cc1ccccc1 (centres undefined) | 
18 | 0.05 ×10⁻⁶ cm/s | < 9.6 mL/min | 19 nM | < 9.6 mL/min | CCS(=O)(=O)Nc1cc(-c2cc(C)c(=O)n(C)c2)cc2c1[nH]c(=O)n2Cc1ccccc1 | 
